The values below come from patent US7138543B2, “Thiolalkyl benzoic acid derivatives” (Guilford Pharmaceuticals Inc., priority 2001, dated 2006).

T1 sequence (Q04609 whole entry): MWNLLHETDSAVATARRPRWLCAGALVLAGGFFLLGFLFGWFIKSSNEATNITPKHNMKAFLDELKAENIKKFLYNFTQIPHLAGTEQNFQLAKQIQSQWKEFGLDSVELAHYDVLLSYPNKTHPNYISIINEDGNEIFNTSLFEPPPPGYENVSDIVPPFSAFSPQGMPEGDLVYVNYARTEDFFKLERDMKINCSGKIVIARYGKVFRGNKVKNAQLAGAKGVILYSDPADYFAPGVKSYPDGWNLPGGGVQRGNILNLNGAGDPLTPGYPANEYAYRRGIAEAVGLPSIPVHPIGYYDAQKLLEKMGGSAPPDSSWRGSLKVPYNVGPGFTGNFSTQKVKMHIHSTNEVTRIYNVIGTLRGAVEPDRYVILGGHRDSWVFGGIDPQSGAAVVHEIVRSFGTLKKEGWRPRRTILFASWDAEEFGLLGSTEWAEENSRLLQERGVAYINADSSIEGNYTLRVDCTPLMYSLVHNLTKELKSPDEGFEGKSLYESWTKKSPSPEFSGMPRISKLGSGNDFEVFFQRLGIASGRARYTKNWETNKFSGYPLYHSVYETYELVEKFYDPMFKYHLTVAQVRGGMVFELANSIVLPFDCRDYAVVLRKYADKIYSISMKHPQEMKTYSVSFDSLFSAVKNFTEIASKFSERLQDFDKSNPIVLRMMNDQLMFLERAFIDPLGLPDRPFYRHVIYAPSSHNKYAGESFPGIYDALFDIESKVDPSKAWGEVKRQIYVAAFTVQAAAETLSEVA

One assay has as its system cortical cell cultures. The assay is described as follows: In vitro assay on ischemia (potassium cyanide and 2-deoxyglucose insult). It counts as cell-based. Particulars: concentration required to cause a 50% reduction in glutamate toxicity following an ischemic insult; unit inferred. As to the method: In vitro Assay on Ischemia
To examine the in vitro effect of the compounds of the invention on ischemia, cortical cell cultures were treated with various compounds of the invention during an ischemic insult utilizing potassium cyanide and 2-deoxyglucose, and for one hour thereafter. For a description of the experimental method used, see Vornov et al., J. Neurochem., Vol. 65, No. 4, pp. 1681–1691 (1995).
The molecule `O=C(O)c1cccc(-c2ccc(CS)cc2C(=O)O)c1` [Compound 26, 4-(mercaptomethyl)-[1,1′-biphenyl]-2,3′-dicarboxylic acid] showed a half-maximal effective concentration (EC50) of 151 nM.

For `O=C(O)c1ccccc1COc1cccc(CCS)c1C(=O)O` [Compound 8, 2-[(2-carboxyphenyl)methoxy]-6-(2-mercaptoethyl)-benzoic acid], the midpoint of the response, the EC50, lay at 29 nM.

Molecule `O=C(O)c1cccc(CCS)c1` [Compound 29, 3-(2-mercaptoethyl)-benzoic acid] gave an EC50 of 2400 nM.

With `O=C(O)c1ccc(COc2cccc(CCS)c2C(=O)O)cc1` [Compound 9, 2-[(4-carboxyphenyl)methoxy]-6-(2-mercaptoethyl)-benzoic acid], the concentration for a half-maximal effect (EC50) was 19 nM.

In turn, `O=C(O)c1cc(OCc2ccccc2)ccc1CCS` [Compound 4, 2-(2-mercaptoethyl)-5-(phenylmethoxy)-benzoic acid,] returned an EC50 of 9600 nM.

Turning to `O=C(O)c1c(CCS)cccc1OCc1ccccc1` [Compound 7, 2-(2-mercaptoethyl)-6-(phenylmethoxy)-benzoic acid], it took 96 nM to reach a half-maximal effect (EC50).

As for `O=C(O)c1ccccc1CCS` [Compound 1, 2-(2-mercaptoethyl)-benzoic acid], the half-maximal effective concentration (EC50) stood at 846 nM.

The molecule `O=C(O)c1cccc(COc2ccc(CCS)c(C(=O)O)c2)c1` [Compound 6, 5-[(3-carboxyphenyl)methoxy]-2-(2-mercaptoethyl)-benzoic acid] displayed an EC50 of 84 nM.

Molecule `O=C(O)c1cc(CS)ccc1Br` [Compound 25, 2-bromo-5-(mercaptomethyl)-benzoic acid] returned a concentration giving a half-maximal response (EC50) of 2000 nM. Against the preceding molecule, the EC50 is about 24-fold higher.

With `O=C(O)c1cc(CS)ccc1OCc1ccccc1` [Compound 27, 5-(mercaptomethyl)-2-(phenylmethoxy)-benzoic acid], the EC50 is 728 nM.

In turn, `O=C(O)c1cccc(CS)c1` [Compound 30, 3-(mercaptomethyl)-benzoic acid] returned a concentration giving a half-maximal response (EC50) of 619 nM.

Molecule `O=C(O)c1ccc(COc2ccc(CCS)c(C(=O)O)c2)cc1` [Compound 3, 5-[(4-carboxyphenyl)methoxy]-2-(2-mercaptoethyl)-benzoic acid] displayed a 50% effective concentration (EC50) of 10000 nM.

In a further assay the test system is STZ diabetic rats. The assay is described as follows: Reversal of diabetic neuropathy in STZ model, delayed dosing: nerve conduction velocity. The format is in vivo. Conditions: daily p.o., within 8 weeks of dosing, persisted through 12 weeks, FIG. 23. As to the method: (§1) In vivo Assay of NAALADase Inhibitors—Reversal of Diabetic Neuropathy in STZ Model
(§2) General Method for STZ Model—Delayed Dosing
(§3) Rats (200–225 grams) were injected with STZ (70 mg/kg) into the tail vein. Diabetes (>350 mg/dl) was confirmed in all rats, 4 weeks after STZ administration. Rats were left untreated until 35–49 days after STZ. Compound D (1, 3, or 10 mg/kg), Compound E (10 mg/kg), or vehicle were dosed daily p.o. following confirmation of hyperalgesia and/or nerve conduction velocity deficits. In separate experiments, onset of treatment was delayed until 60 to 90 days after STZ administration. Nerve conduction velocity or withdrawal response to thermal stimulation of hind paws was measured at intervals, usually bi-weekly for thermal response and monthly for nerve conduction velocity.
Nerve Conduction Velocity Measurements
Sensory and motor nerve conduction velocities were evaluated using the method of De Koning and Gispen (Peptides 8: 415–422, 1987). Electrophysiological evaluation was carried out within one hour of dosing. Animals were anesthetized with isoflurane and stimulating needle electrodes were inserted close to the sciatic nerve at the sciatic notch and the tibial nerve near the ankle. Recording electrodes were placed over the foot muscles. Stimuli were applied and responses recorded. Motor and sensory nerve conduction velocities were calculated by measuring the distance between the sciatic notch and ankle sites, and the latency between the M-wave and the H-reflex.
Turning to `O=C(O)c1cccc(CC(CCCS)C(=O)O)c1` (stereo not drawn) [Compound E, 3-Carboxy-alpha-(3-mercaptopropyl)-benzenepropanoic acid], the “motor nerve conduction velocity” value is on record as “reversed the motor nerve conduction velocity towards normal”.

A further assay addresses T1, NAALADase (Homo sapiens, UniProt Q04609).
T1 construct: from tissue; host or cells: unspecified tissue
The assay is described as follows: In vitro inhibition of NAALADase activity. The format is biochemical. Particulars: unit inferred. As to the method:
In vitro Inhibition of NAALADase Activity
Protocol for Assaying in vitro Inhibition of NAALADase Activity
The following were combined in assay tubes: 100 μL of 10 mM CoCl2, 250 μL of 200 mM Tris chloride, 100 μL tissue, 100 μL of 10 mM NAALADase inhibitor in Bakers H2O, and Bakers H2O to make a total volume of 950 μL. Each assay tube was then incubated for 10 minutes in a 37° C. water bath. […] The assay was stopped by adding 1.0 ml of 0.1 M sodium phosphate.
Glutamate released by the action of the NAALADase enzyme was separated from the assay solution using an anion exchange resin. The resin was equilibrated to 25° C., 2.0 ml of the resin was added to a Pasteur pipette pre-loaded with a single glass bead, and each column was washed twice with distilled H2O. A column was placed over a scintillation vial and 200 μL of an assay sample was loaded onto the column. After draining, glutamate was eluted using two 1.0 ml washes of 1 M formic acid. After addition of 10 ml of scintillation cocktail, each sample was counted for 2 minutes on a scintillation counter.
As to `O=C(O)c1cccc(-c2ccc(CS)cc2C(=O)O)c1` [Compound 26, 4-(mercaptomethyl)-[1,1′-biphenyl]-2,3′-dicarboxylic acid], it took 24.3 nM to reach half-maximal inhibition (IC50).

As to `O=C(O)c1c(CCS)cccc1OCc1cccc(Br)c1` [Compound 43, 2-(3-bromo-benzyloxy)-6-(2-mercapto-ethyl)-benzoic acid], the IC50 came to 104 nM. Against the preceding molecule, the IC50 is about 4.3-fold higher.

As for `O=C(O)c1ccc(COc2cccc(CCS)c2C(=O)O)cc1Br` [Compound 20, 2-[(3-bromo-4-carboxyphenyl)methoxy]-6-(2-mercaptoethyl)-benzoic acid], the half-inhibitory concentration (IC50) was found to be 18 nM.

For the molecule `O=C(O)c1ccc(COc2cccc(CCS)c2C(=O)O)cc1` [Compound 9, 2-[(4-carboxyphenyl)methoxy]-6-(2-mercaptoethyl)-benzoic acid], half-maximal inhibition (IC50) required 28.8 nM.

Turning to `COc1ccc(COc2cccc(CCS)c2C(=O)O)cc1` [Compound 36, 2-(2-mercaptoethyl)-6-[(4-methoxyphenyl)methoxy]-benzoic acid], the IC50 was 100 nM. Compared with the last molecule, the IC50 is about 3.5-fold higher.

`COc1cccc(CCS)c1C(=O)O` [Compound 44, 2-(2-mercapto-ethyl)-6-methoxy-benzoicacid] showed a half-maximal inhibitory concentration (IC50) of 954 nM.

`O=C(O)c1cc(Br)cc(COc2cccc(CCS)c2C(=O)O)c1` [Compound 34, 2-[(3-bromo-5-carboxyphenyl)methoxy]-6-(2-mercaptoethyl)-benzoic acid] yielded an IC50 of 0.9 nM.

The molecule `O=C(O)c1c(CCS)cccc1OC(c1ccccc1)c1ccccc1` [Compound 45, 2-benzhydryloxy-6-(2-mercapto-ethyl)-benzoic acid] yielded an IC50 of 35200 nM. This IC50 lies about 39000-fold higher than the previous one.

Molecule `O=C(O)c1c(CCS)cccc1OCc1ccccc1` [Compound 7, 2-(2-mercaptoethyl)-6-(phenylmethoxy)-benzoic acid] registered an IC50 of 89.8 nM.

`O=C(O)c1c(CCS)cccc1OCc1ccc(Cl)cc1` [Compound 32, 2-[(4-chlorophenyl)methoxy]-6-(2-mercaptoethyl)-benzoic acid] showed an IC50 of 25 nM.

With `O=C(O)c1cccc(COc2cccc(CCS)c2C(=O)O)c1` [Compound 40, 2-(3-carboxy-benzyloxy)-6-(2-mercapto-ethyl)-benzoic acid], the 50% inhibitory concentration (IC50) was found to be 1 nM.

As to `COc1ccc(C(=O)O)c(COc2cccc(CCS)c2C(=O)O)c1` [Compound 39, 2-[(2-carboxy-5-methoxyphenyl)methoxy]-6-(2-mercaptoethyl)-benzoicacid], the IC50 amounted to 40 nM.

For `O=C(O)c1c(CCS)cccc1OCc1ccccc1-c1ccccc1` [Compound 33, 2-(biphenyl-2-ylmethoxy)-6-(2-mercaptoethyl)-benzoic acid], the IC50 was 95 nM.

As to `Cc1ccc(COc2cccc(CCS)c2C(=O)O)cc1` [Compound 37, 2-(2-mercaptoethyl)-6-[(4-methylphenyl)methoxy]-benzoic acid], the concentration for half-maximal inhibition (IC50) stood at 70 nM.

The molecule `O=C(O)c1c(CCS)cccc1OCc1cccc(Cl)c1` [Compound 46, 2-(3-chloro-benzyloxy)-6-(2-mercapto-ethyl)-benzoic acid] registered an IC50 of 12200 nM.

`O=C(O)c1cc(COc2cccc(CCS)c2C(=O)O)ccc1Br` [Compound 38, 2-[(4-bromo-3-carboxyphenyl)methoxy]-6-(2-mercaptoethyl)-benzoic acid] gave a half-inhibitory concentration (IC50) of 0.8 nM.

`CC(C)(C)c1ccc(COc2cccc(CCS)c2C(=O)O)cc1` [Compound 42, 2-(4-tert-butyl-benzyloxy)-6-(2-mercapto-ethyl)-benzoic acid] displayed a concentration for half-maximal inhibition (IC50) of 300 nM. Against the preceding molecule, the IC50 is about 380-fold higher.

`O=C(O)c1c(CCS)cccc1-c1ccccc1` [Compound 47, 3-(2-mercapto-ethyl)-biphenyl-2-carboxylic acid] had an IC50 of 75400 nM. This IC50 is about 250-fold higher than that of the molecule before.

For the molecule `O=C(O)c1ccccc1CS` [Compound 31, 2-(mercaptomethyl)-benzoic acid], the 50% inhibitory concentration (IC50) came to 100000 nM.

For the molecule `O=C(O)c1c(CCS)cccc1OCc1ccc(Br)cc1` [Compound 41, 2-(4-bromo-benzyloxy)-6-(2-mercapto-ethyl)-benzoic acid], the IC50 came to 1250 nM.

`O=C(O)c1ccc(Br)c(COc2cccc(CCS)c2C(=O)O)c1` [Compound 35, 2-[(2-bromo-5-carboxyphenyl)methoxy]-6-(2-mercaptoethyl)-benzoic acid]: the IC50 is 1.2 nM.

`O=C(O)Cc1cccc(CCS)c1C(=O)O` [Compound 48, 2-carboxymethyl-6-(2-mercapto-ethyl)-benzoic acid] had a concentration for half-maximal inhibition (IC50) of 43 nM.

In the next assay the test system is chronic constrictive injury-induced rats. The assay is described as follows: Neuropathic pain in CCI model (sciatic nerve ligation). The format is in vivo. Conditions: 0.1 mg/kg for 18 days after sciatic nerve ligation, FIG. 14. On the procedure: In vivo Assay of NAALADase Inhibitors on Neuropathic Pain in CCI Model
Sciatic nerve ligation, consisting of 4 ligatures tied loosely around the sciatic nerve at 1 mm intervals proximal to the nerve trifurcation, was performed on rats. […] The rats were habituated to a Hargreaves apparatus. An infrared heat source was directed onto the dorsal surface of each rat's hindpaws and the time taken for the rat to withdraw its paws was noted. The difference in scores between the latency of the response for the paw on the operated side versus the paw on the unoperated control side was determined.
Take `O=C(O)c1cccc(-c2cccc(CCS)c2C(=O)O)c1` [Compound 10, 3-(2-mercaptoethyl)-[1,1′-biphenyl]-2,3′-dicarboxylic acid]: the “withdrawal latency difference scores between operated and unoperated paws” value is “normalized the difference in scores”.

The same assay, now with this note: 10, 1 or 0.1 mg/kg for 15 days after sciatic nerve ligation, FIG. 13.
As to `O=C(O)c1ccc(COc2cccc(CCS)c2C(=O)O)cc1` [Compound 9, 2-[(4-carboxyphenyl)methoxy]-6-(2-mercaptoethyl)-benzoic acid], the “withdrawal latency difference scores between operated and unoperated paws” value is on record as “normalized the difference in scores”.

In another assay the test system is STZ diabetic rats. The assay is described as follows: Reversal of diabetic neuropathy in STZ model, delayed dosing: thermal hyperalgesia. The format is in vivo. Conditions: daily p.o., treatment from 5 weeks post STZ, within two weeks of treatment, FIG. 22. As to the method: as §1, §2, §3
Animals were acclimated to the apparatus for at least 5 min. An infra-red source was placed under below the plantar surface of the rat hind-paw. The intensity of the source was adjusted so that latency for normal rats was about 10 secs. Animals were tested for thermal response latency according to the method of Hargreaves et al (Pain 77–88, 1988). Each animal was tested 8 times (4 each hind limb) and the latency of response recorded automatically to nearest 0.1 sec. An average of the last 4 measurements for each paw was calculated (8 total measurements) and noted for each rat.
Consider `O=C(O)c1cccc(CC(CCCS)C(=O)O)c1` (stereo not drawn) [Compound E, 3-Carboxy-alpha-(3-mercaptopropyl)-benzenepropanoic acid], for which the “neuropathic hyperalgesia (thermal response latency)” value was “reversed towards normal”.
